Data on 1 compound can be found in patent US12583884B2, “3beta-(benzyloxy)-17alpha-methyl-pregn-5-en-20-one for use in the treatment of cognitive disorders” (AELIS FARMA, priority 2018, dated 2026).

The conditions of series [1]: Beyer et al., 2010; Patel and Hillard, 2006; cited from earlier work.
A short description of series [2]: Depressive-like behaviors in the sucrose preference test. It counts as in vivo, mouse. The protocol: Sucrose preference was tested in the home cages of the mice. A sucrose solution containing 2% of sucrose (D(+) saccharose) in tap water was poured in plastic graduated bottles (volume in each bottle, 45 ml). Identical bottles were filled with tap water. All the mice were first habituated to the bottles and to the sucrose solution. One bottle containing water and one bottle containing sucrose were placed in the hopper of each home cage. […] The mice had access to the solutions from the beginning of the dark phase, at the daily peak of food and water consumption (from 7 pm to 8.30 am). The sucrose preference test was performed seven days later. Water and sucrose solutions were presented as described for habituation except that mice had access to the solutions from 12 pm to 10 pm. At each time point, the bottles were weighed, 1 g corresponding to 1 ml. The intake volume was calculated by subtracting the initial bottle weight to the final bottle weight.
15 or 30 mg/kg or of vehicle (corn oil; 5 ml/kg) was studied in the sucrose preference test in 2-month-old male C57B1/6J mice (n=7-8 per group). Rimonabant was dissolved in a vehicle containing dimethylsulfoxide (DMSO, 2%), Tween80 (2%) in injectable NaCl 0.9%. Within the same study, the effect of repeated intraperitoneal injections of rimonabant at 10 mg/kg or of vehicle alone (10 ml/kg) was studied in the sucrose preference test in 2-month-old male C57B1/6J mice (n=8 per group).

In series [3] the test system is primary culture of rat cortical neurons. Kind of series: Neurotoxicity in primary culture of cortical neurons. The series is classed as cell-based. The settings on record: from 30 μM. The method, then:
Cells were then followed by time-lapse imaging during 72 hours. The cells were then permeabilized. This procedure allowed to express the cytolysis over time as a percentage of the total number of cells per well.

The test system of series [4] is primary culture of rat hepatocytes. Kind of series: Biliary function: bile canaliculi in primary hepatocytes. The method, then: (§1) The percentage of cytolysed hepatocytes over time was determined by time lapse imaging with a fluorescent cytolysis marker. The number of bile canaliculi after 48 hours of treatment was determined using a fluorescent bile salt analog.
(§2) Primary rat hepatocytes from 10-12 weeks old Wistar rats were isolated using a two-step collagenase perfusion method. After 24 hours, cells were covered with a layer of Matrigel to perform a sandwich configuration culture. […] Cells were then stained using a fluorescent bile salt analog to measure the bile canaliculi network state and the Bsep pump activity. Acetaminophen (30 mM) and Cyclosporin A (1 μM) were added as positive controls of hepatotoxicity and biliary canaliculi loss, respectively.

For series [5] the test system is unchanged. Description: Hepatotoxicity in primary culture of hepatocytes. It counts as cell-based. The method, then:
as §1, §2

Series [6] in a line: Body weight of lean mice, repeated administrations.
Description: Mice were weighed prior to drug administration every day at the first week of treatment and then four days per week.
The conditions of series [7]: therapeutic dose for the treatment of obesity; Zavatti et al., 2011; EPAR; cited from earlier work.
The nature of series [8]: Anxiety-like behaviors in the elevated plus maze. It counts as in vivo, mouse. The text has this:
The EPM apparatus was made of grey polyvinyl chloride and consisted of four elevated arms. The arms (height, 60 cm; length, 37 cm; width, 6 cm; each) were arranged in a cross-like disposition, with two opposite arms being enclosed by walls and the two other arms being open. A video camera placed on the top of the maze and connected to a tracking system allowed the automatic scoring of the locomotion of the mice in the maze. The light intensity of the maze was set at 45 lux in the open arms. One mouse was placed in the center of the EPM and was then free to explore the entire maze for 5 minutes. The time spent and the number of entries into the open arms and closed arms were measured. A decrease in the percentages of visits and/or of the time spent in open arms reflects an increase in anxiety levels.
Rimonabant was dissolved in a vehicle containing DMSO, (2%), Tween80 (2%) in injectable NaCl 0.9%. Within the same study, the effect of intraperitoneal injection of rimonabant at 10 mg/kg or of vehicle alone (10 ml/kg) was studied in the EPM in 2-month-old male C57B1/6J mice (n=10 per group). The EPM test was performed 30 minutes after rimonabant injection.

For a further series, the system named is HeLa cells. Kind of series: Genotoxicity: Histone H2AX phosphorylation. Conditions: 100 μM; 24 hours.
Series [9] is described as follows: Food intake of standard chow in lean mice. Conditions: acute 10 mg/kg ip; first 3 hours after light-off; male C57BL/6J.
Protocol: Spontaneous intake of standard chow in mice was evaluated during the dark phase of the light-dark cycle. The amount of food eaten was measured at light-off, 3 hours and 13 hours after light-off.
[10] abbreviates: reference ID100 for rimonabant effects = 10 mg/kg.

Protocol for HeLa cells: This study aimed at measuring Histone H2AX phosphorylation (γH2AX), which is the cellular response to DNA damage resulting in double-stranded DNA breaks. […] Etoposide at 3 μM was added as positive control of genotoxic effects. An immunofluorescence was performed on treated cells with a specific antibody against the phosphorylated histone gH2AX. Nuclei were stained with a fluorescent DNA intercaling agent. The stained cells were imaged and analyzed on the BD Pathway 855 imager®.

Turning to `Cc1c(C(=O)NN2CCCCC2)nn(-c2ccc(Cl)cc2Cl)c1-c1ccc(Cl)cc1` [rimonabant], the “Doses with similar effects (anhedonia, anxiety-like behaviors) in rodents” value in series [1] was no less than 1 mg/kg. Besides, in series [2] (10 mg/kg ip once a day, 28 days), the Sucrose consumption entry is on record as “reduced by half sucrose consumption”. The “ID100: increase in depression-related behaviors” value in series [2] (male mice) was 10 mg/kg. In addition, the “Effect: increase in depression-related behaviors (repeated administration)” value in [2] (male mice, rimonabant 10 mg/kg) is “Yes”. For the same compound, the “N fold ID100: increase in depression-related behaviors” value in series [2] (setting [10]) is given as 1. In addition, the Neural cell death in series [3] was found to be 80%. The “Effect on bile canaliculi” value in series [4] (from 10 μM) was “suppressed bile canaliculi”. Further, the “Concentration decreasing the number of canaliculi” value in [4] (tested 0.1 to 100 μM, 48 hours) is no less than 1000 nM. Also, the Hepatocyte death in series [5] (from 10 μM) was found to be 100%. For the same compound, the “Concentration increasing hepatocyte cell death” value in series [5] (tested 0.1 to 100 μM, 48 hours) was no less than 3000 nM. Moreover, the Body weight result in series [6] (10 mg/kg ip once a day, 40 days) is given as “decreased body weight”. Further, the “ID100: inhibition of food-intake and body weight” value in series [6] (male mice) is 10 mg/kg. Further, the “Effect: inhibition of food-intake and body weight (repeated administration)” value in series [6] (male mice, rimonabant 10 mg/kg) is given as “Yes”. Further, in series [6] (setting [10]), the “N fold ID100: inhibition of food-intake and body weight” value was determined as 1. Besides, the “Doses inducing scratching, hyperactivity followed by sedation and convulsions” value in series [7] is recorded as 6 times the therapeutic dose. The “Time spent and number of visits in the open arms” value in series [8] (acute 10 mg/kg ip, 30 minutes after injection) is “markedly reduced the time spent and the number of visits in the open arms”. In addition, the “ID100: increase in anxiety-like behaviors” value in series [8] (male mice) turned out to be 10 mg/kg. Further, in [8] (male mice, rimonabant 10 mg/kg), the “Effect: increase in anxiety-like behaviors (acute administration)” value was “Yes”. The “N fold ID100: increase in anxiety-like behaviors” value in [8] (setting [10]) was 1. For the same compound, the “Genotoxicity (DNA damage)” value with HeLa cells is recorded as “induced DNA damage”. The Food intake entry in series [9] is listed as “significantly decreased food intake”.
